The numbers were not newly measured in US9463243B2, “Amorphous medicinal fine particles produced by pulsed laser ablation in liquid and the production method thereof” (IMRA AMERICA, INC., priority 2012, dated 2016), which cites them from elsewhere.

Consider `COc1cc(/C=C/C(=O)CC(=O)/C=C/c2ccc(O)c(OC)c2)ccc1O` [Curcumin, curcumin], for which the water solubility result is reported as “water-insoluble”.
